Laboratory results as given in PubChem BioAssay AID179 (DTP/NCI, 2004).
Active and inactive are the calls of the source.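 Rule for the calls: active = compounds giving half or more protection of infected cells from virus-caused growth loss, again on retest; inactive = the rest.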 Where a SMILES comes first, the peptide text is derived from it. The star is where a group is joined. Cbz = O=C(OCc1ccccc1)*; Boc = CC(C)(C)OC(=O)*; OSu = O=C1CCC(=O)N1O*; Bn = c1ccc(C*)cc1

System: CEM cells HIV-1 protection, formazan growth assay
Assay: NCI AIDS Antiviral Assay
Details: for IC50: measured here: growth of uninfected CEM cells
Method in brief: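 CEM (human) cells, HIV-1 infected vs uninfected, 5-point dosing, formazan growth read-out. Retest threshold 50% protection.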

| Compound | EC50 [µM] | IC50 [µM] | outcome |
| --- | --- | --- | --- |
| C=CC1(C)OC2(CCN(C(=O)OCC)CC2)OC1C (stereo not drawn) | > 200 | 123 |  |
| COc1ccc(C2c3cc4c(cc3OC(O)(CO)C2C(=O)O)OCO4)c(OC)c1OC (stereo not drawn) (tested in a mixture with another compound) |  |  | inactive |
| NC(=O)C(CSSCC(NC(=O)OCc1ccccc1)C(N)=O)NC(=O)OCc1ccccc1 (stereo not drawn) | > 200 | 18.2 |  |
| CSC(=S)c1ccc(C(=S)SC)cc1 |  |  | inactive |
| CCOC(=O)c1c(NC(=S)Nc2ccc(Cl)cc2)sc2c1CCN(C)C2 | > 100 | > 100 |  |
| Cc1ccc(Cc2nn(C)c(=O)n2N)cc1 |  |  | inactive |
| Nc1nc(=S)c2c(ncn2CC(O)CO)[nH]1 (stereo not drawn) | 363 | 525 |  |
| N#C/C(=C/N1CCNC1=S)C(N)=O | > 200 | > 200 |  |
| CCCCCCCCCN=C(N)CSSCC(N)=NCCCCCCCCC | > 200 | 19.5 |  |
| N#CC1=C(c2ccccc2)OC2(N)OC(c3ccccc3)=C(C#N)C12C#N (stereo not drawn) |  |  | inactive |
| CC1(C)COC(c2cccc(C3=NC(C)(C)CO3)n2)=N1 | > 26.3 | > 26.3 |  |
| CC(C(=O)O)c1ccc2c(c1)Cc1ccccc1-2 (stereo not drawn) | > 200 | > 200 |  |
| Cc1ccccc1-n1c(C)nc2ccccc2c1=O | > 269 | > 269 |  |
| O=C(O)CCC(=O)OCCNCCOC(=O)CCC(=O)O |  |  | inactive |
| Cc1cccc(C)c1NC(=O)CCC(=O)CC(=O)C(C)C | > 123 | > 123 |  |
| Nn1c(CCCCCCCCc2nnc(COc3ccc(Cl)cc3Cl)n2N)nnc1COc1ccc(Cl)cc1Cl | > 200 | 42.7 |  |
| CN(C)CCS(=O)(=O)O | > 200 | > 200 |  |
| CC(=O)/C(=C/N1CC(=O)NC1=S)C(=O)Nc1ccccc1 | > 200 | > 200 |  |
| CCOC(=O)C(C(=O)OCC)c1ccc([N+](=O)[O-])o1 | > 132 | 1.86 |  |
| O=C(Nc1ccc(C2=NCCN2)cc1)Nc1cc(NC(=O)Nc2ccc(C3=NCCN3)cc2)cc(C(=O)O)c1 | 38.9 | > 200 |  |
| CNc1ccccc1S(=O)(=O)c1ccccc1Cl | > 63.1 | 40.7 |  |
| CC1(c2ccc3cccc(F)c3c2)OC(=O)c2ccccc21 (stereo not drawn) |  |  | inactive |

| Compound | EC50 [µM] | IC50 [µM] | outcome |
| --- | --- | --- | --- |
| COC(=O)c1nsc(OC)c1Cl | > 200 | > 200 |  |
| CCc1nc(N)nc(N)c1-c1ccc(Cl)c(N=NN(C)C)c1 | > 1 | 0.589 |  |
| N#C/C(=C\NC(N)=S)C(=O)c1ccc2ccccc2c1 |  |  | inactive |
| Nc1ccc2c(C(F)(F)F)cc(=O)oc2c1 | > 22.9 | > 22.9 |  |
| N#C/C(=C/C=C/c1ccco1)C(N)=O | > 200 | > 200 |  |
| CC(C)(C)C(=O)C1CC(=O)c2ccccc2C1=O (stereo not drawn) | > 29.5 | > 29.5 |  |
| CN(C)c1ccc(N=Nc2cccc3ccoc23)cc1 |  |  | inactive |
| CC(O)(C#N)CC(O)(C(F)(F)Cl)C(F)(F)Cl (stereo not drawn) | 195 | > 200 |  |
| COc1ccc2[nH]c3c(c2c1)CCc1c(OC)cccc1-3 | > 200 | 178 |  |
| N.N.N.N.O=S([O-])[O-].[Co+3].[N-]=[N+]=[N-] |  |  | inactive |
| COc1ccc(C2=C(Cl)c3cc(OC)c(OC)cc3C2Cl)cc1 (stereo not drawn) |  |  | inactive |
| N/N=C1\C(=O)N(C2CCCCC2)C(=O)C1C(=O)NC1CCCCC1 (stereo not drawn) |  |  | inactive |
| CCCNC(=O)N(C)C(=O)N1N=C(c2ccccc2)C1c1ccccc1 (stereo not drawn) | 4.57 | 52.5 |  |
| CCC12CCCN(C1)C(=O)Cc1c([nH]c3ccccc13)C(=O)C2 (stereo not drawn) | > 8.13 | > 8.13 |  |
| O=C1NC(Cc2ccc([N+](=O)[O-])cc2)C(=O)N2CCCC12 (stereo not drawn) | > 200 | > 200 |  |
| O=S(=O)(c1cc(Cl)ccc1Cl)N1CCN(c2ccc(Cl)c(Cl)c2)CC1 | > 200 | > 200 |  |
| COc1ccccc1NC(=S)N/N=C(/C)c1ccccn1 | > 0.2 | 0.0339 |  |
| CN1C(=O)OC2OC(C)(c3ccc(S(=O)(=O)c4ccccc4)cc3)C(=O)CC21 (stereo not drawn) | > 123 | > 123 |  |
| COC(=O)[C@@H]1Cc2c3n(c4ccccc24)C(=O)CCC3N1C (stereo partly drawn) | > 417 | 295 |  |
| COc1cc2c(c(C3C(=O)N(C)c4ccc(Br)cc43)c1OC)OCO2 (stereo not drawn) | > 200 | > 200 |  |
| Cc1ccc(N2CC(=O)N3CCCC(c4ccccc4)N3C(=O)C2)cc1 (stereo not drawn) |  |  | inactive |
| CC1=C(C(=O)CC(=O)C(=O)Nc2cc(C)ccc2C)Sc2ccccc2N1 | > 10 | > 10 |  |

| Compound | EC50 [µM] | IC50 [µM] | outcome |
| --- | --- | --- | --- |
| CC1(C)N=C(/C(Cl)=[N+](/[O-])C(=O)c2ccc(F)cc2)C(C)(C)N1O | > 200 | 51.3 |  |
| CC(C)(C)/C(O)=C\c1nc2cc(F)c(F)cc2[nH]c1=O | > 200 | 182 |  |
| CC(C)(C)c1cc2c3c(c1)C(C(F)(F)F)(C(F)(F)F)O[Te]3(C)OC2(C(F)(F)F)C(F)(F)F | > 31.6 | > 31.6 |  |
| COC(=O)CN1C(=O)C2(C(=O)OC)OC1(c1ccc([N+](=O)[O-])cc1)C1C(=O)N(c3ccccc3)C(=O)C12 (stereo not drawn) | > 200 | > 200 |  |
| Cc1c(C(=O)c2ccccc2)n(COCCC[Se]c2ccccc2)c(=O)[nH]c1=O | > 200 | 18.2 |  |
| CCOC(=O)c1cn2c([nH]c3ccccc32)c(C#N)c1=O | > 47.9 | > 47.9 |  |
| CC(C)(C)OC(=O)NC(Cc1ccc(OCc2ccccc2)cc1)C(=O)NC(CCCCNC(=O)OCc1ccccc1)C(=O)NC(CCCCNC(=O)OCc1ccccc1)C(=O)ON1C(=O)CCC1=O (stereo not drawn) (Boc-Tyr(Bn)-Lys(Cbz)-Lys(Cbz)-OSu; configuration not given here) | > 100 | 46.8 |  |
| CCCCCCCCCCCC1=C(O)C(N[C@@H]2CCCCC2N)=CC(=O)C1=O (stereo partly drawn) | > 3.72 | > 3.72 |  |
| CC1C2CC3(c4ccccc4)CC(/C2=N\O)/C(=N/O)C1/C3=C\O (stereo not drawn) | > 200 | > 200 |  |
| Cc1ccc(/C=C2\NC(=S)NC2=O)cc1 | > 200 | > 200 |  |
| O=[N+]([O-])c1ccc(N2N=C(c3c(O)ccc4ccccc34)CC2c2ccc(Cl)cc2)c([N+](=O)[O-])c1 (stereo not drawn) | > 200 | 16.6 |  |
| Cc1onc(-c2c(F)cccc2Cl)c1C(=O)Nc1cc2cc([N+](=O)[O-])ccc2oc1=O | > 50.1 | > 50.1 |  |
| c1ccc(CC2(c3cc4ccccc4[nH]3)OCCO2)nc1 | > 200 | 174 |  |
| NC1CC=C(COC(=O)C(O)(c2ccccc2)C2CC2)CC1 (stereo not drawn) | > 200 | > 200 |  |
| COC(=O)c1cc(C(=CCC23CC4CC(CC(C4)C2)C3)c2cc(Cl)c(OC)c(C(=O)OC)c2)cc(Cl)c1OC | > 17.4 | > 17.4 |  |
| Cc1nccn1Cc1c(N)nc(N)[nH]c1=O | > 200 | > 200 |  |
| N=C(N)N1CCc2ccccc2C1 | > 200 | > 200 |  |
| CCN(CC)CCOC(=O)c1cc2cc([N+](=O)[O-])ccc2oc1=O | > 214 | > 214 |  |
| CN1c2ccccc2N=Cc2c1oc1ccc3ccccc3c1c2=O | 46.8 | 50.1 |  |
| CCOc1ccc(Nc2nc(C)c(C(=O)/C=C/c3ccc(Cl)cc3Cl)s2)cc1 | > 22.9 | 20 |  |
| Nc1cc2c3c(cccc3c1)C(=O)N(CCN1CCCC1)C2=O | > 200 | 1.07 |  |
